Laboratory results reported in patent US11524942B2, “Metabolites of [3-(4-{2-butyl-1-[4-(4-chloro-phenoxy)-phenyl]-1H-imidazol-4 yl}-phenoxy)-propyl]-diethyl-amine” (vTv Therapeutics LLC, priority 2018, dated 2022).

Molecular target: human sRAGE (the soluble extracellular domain of the human receptor for advanced glycation endproducts) (Homo sapiens (Human), UniProt Q15109)
Assay: Microscale thermophoresis binding affinity to recombinant human sRAGE
Details: 25° C., pH 7.5
Experimental: Around 5 nM sRAGE was subsequently added to compounds at concentrations from 600 nM to 20 pM and incubated for 5 minutes at 25° C. in buffer containing 25 mM Hepes (pH 7.5), 5 mM CaCl2), 5 mM MgCl2, 50 mM NaCl, 0.05% Tween20 and 1% DMSO before proceeding to microscale thermophoresis.
The raw thermophoresis data and average Kds were generated according to manufacturer's protocol using the Microscale Thermophoresis System analysis software.

human sRAGE (the soluble extracellular domain of the human receptor for advanced glycation endproducts), sequence (Q15109 23-342): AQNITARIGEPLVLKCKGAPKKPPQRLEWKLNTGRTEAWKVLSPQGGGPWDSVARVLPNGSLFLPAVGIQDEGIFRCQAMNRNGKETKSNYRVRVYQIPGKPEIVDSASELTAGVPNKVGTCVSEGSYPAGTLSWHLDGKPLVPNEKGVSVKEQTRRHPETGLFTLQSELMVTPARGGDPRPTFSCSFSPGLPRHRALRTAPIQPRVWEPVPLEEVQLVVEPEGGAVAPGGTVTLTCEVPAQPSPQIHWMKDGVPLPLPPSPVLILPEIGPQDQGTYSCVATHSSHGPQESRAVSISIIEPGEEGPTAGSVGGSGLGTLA

Q: `CCCCc1nc(-c2ccc(OCCC(=O)O)cc2)cn1-c1ccc(Oc2ccc(Cl)cc2)cc1` [Metabolite M1, 3-(4-{2-Butyl-1-[4-(4-chloro-phenoxy)-phenyl]-1H-imidazol-4-yl}-phenoxy)-propionic acid] was tested. Which Kd did it give?
A: Its Kd is 219 nM.

Q: How did the Kd turn out when `CCCCc1nc(-c2ccc(OCCCN(CC)CC)cc2)cn1-c1ccc(Oc2ccc(Cl)cc2O)cc1` [Metabolite M5, 2-[4-[2-butyl-4-[4-[3-(diethylamino)propoxy]phenyl]imidazol-1-yl]phenoxy]-5-chloro-phenol] was run?
A: Its Kd is 9.7 nM.

Q: For `CCCCc1nc(-c2ccc(OCCCO)cc2)cn1-c1ccc(Oc2ccc(Cl)cc2)cc1` [Metabolite M7, 3-(4-{2-Butyl-1-[4-(4-chloro-phenoxy)-phenyl]-1H-imidazol-4-yl}-phenoxy)-propan-1-ol], which Kd is on record?
A: The Kd was 99.8 nM.

Q: For `CCCCc1nc(-c2ccc(OCCCN(CC)CC)cc2)cn1-c1ccc(Oc2ccc(Cl)c(O)c2)cc1` [Metabolite M6, 5-[4-[2-butyl-4-[4-[3-(diethylamino)propoxy]phenyl]imidazol-1-yl]phenoxy]-2-chloro-phenol], which Kd is on record?
A: The Kd was 9.8 nM.

Q: For `CCCCc1nc(-c2ccc(O)cc2)cn1-c1ccc(Oc2ccc(Cl)cc2)cc1` [Metabolite M3, 4-{2-butyl-1-[4-(4-chloro-phenoxy)-phenyl]-1H-imidazol-4-yl}-phenol], which Kd is on record?
A: Its Kd is 257 nM.
